# Assay results reported in PMC4823786, “Redirection of pyruvate flux toward desired metabolic pathways through substrate channeling between pyruvate kinase and pyruvate-converting enzymes in Saccharomyces cerevisiae” (Scientific Reports, 2016).
# Target: T1, His6-LdhA (Leuconostoc mesenteroides, UniProt Q03VC9)
# T1 construct: gene LEUM_1756; N-terminal His6 tag (pET28b), expressed in E. coli Rogetta gami2 (DE3) pLysS, Ni-NTA purified
# Experiment: NADH oxidation monitored at […] nm
# Format: biochemical
# Details: 10 mM sodium pyruvate, 0.2 mM β-NADH, 50 mM Tris-HCl pH 7.0
# T1 sequence (Q03VC9 entry or part of it): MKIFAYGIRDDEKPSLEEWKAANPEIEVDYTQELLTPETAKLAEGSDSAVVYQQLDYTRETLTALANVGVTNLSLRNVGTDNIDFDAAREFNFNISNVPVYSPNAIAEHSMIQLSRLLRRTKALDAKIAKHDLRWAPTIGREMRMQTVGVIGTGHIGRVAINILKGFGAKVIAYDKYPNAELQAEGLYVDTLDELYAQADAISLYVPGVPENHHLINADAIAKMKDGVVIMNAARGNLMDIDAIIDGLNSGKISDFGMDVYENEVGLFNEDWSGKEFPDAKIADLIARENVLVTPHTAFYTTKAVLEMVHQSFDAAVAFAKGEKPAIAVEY
row,Structure (SMILES),NADH oxidation monitored at 340 nm
1,CC(=O)C(=O)O [pyruvate],reduction of pyruvate to lactate was monitored by measuring the oxidation rate of NADH
2,NC(=O)C1=CN([C@@H]2O[C@H](COP(=O)(O)OP(=O)(O)OC[C@H]3O[C@@H](n4cnc5c(N)ncnc54)[C@H](O)[C@@H]3O)[C@@H](O)[C@H]2O)C=CC1 [NADH],reduction of pyruvate to lactate was monitored by measuring the oxidation rate of NADH
